# In US10106516B2, “PDE10 inhibitors and related compositions and methods” (Omeros Corporation, priority 2010, dated 2018):
# pIC50: −log10 of the molar value.
# Target: T1, PDE10 (Homo sapiens, UniProt Q9Y233)
# T1 construct: made in house; host or cells: Sf9 insect cells (baculovirus)
# Experiment: PDE10 biochemical assay (two-step Thompson and Appleman method or SPA)
# Details: PDE10 inhibition
# Method: In short, cAMP is spiked with (^3H)cAMP and incubated with PDE10 and various concentrations of a compound of structure (I). After the appropriate incubation time, the reaction is terminated by heating. The mixture is then subjected to treatment with snake venom phosphatase. The phosphatase hydrolyzes any AMP in the mixture, but leaves unreacted cAMP intact. Thus, by separating cAMP from the mixture and determining its concentration (by radiography), the percent of inhibition can be determined. IC50 values can be calculated by performing the experiment at several concentrations using standard graphical means. A detailed description of the actual technique used for IC50 assays as set forth in following Examples.
# The phosphodiesterase (PDE) assay was performed using recombinant human PDE 1A3, 2A3, 3 catalytic region, 4 catalytic region, 5 catalytic region, 7A, 8A, 9A2, 10A1 and 11A1 enzymes expressed in a baculoviral system using Sf9 cells. PDE activity was measured using a modification of the two-step method of Thompson and Appleman described above which was adapted for 96 well plate format. […] The final assay volume was 110 μl with assay buffer (10 mM MgCl2; 40 mM Tris.HCl; pH 7.4). Reactions were initiated with enzyme and incubated with (^3H)-substrate and substance for 20 minutes at 30° C. The reaction was terminated by denaturing the enzyme (heating the reaction to 70° C. for 2 minutes). The reaction was then cooled at 4° C. for 10 minutes before the addition of snake venom (Crotalus atrox, 0.2 mg/ml) for 10 minutes at 30° C., thus allowing non-specific hydrolysis of the tritiated substrate. Separation of the remaining unhydrolysed cyclic nucleotide was achieved by a batch binding of the mixture to activated Dowex (200 μl) anion exchange resin. The anion exchange resin bound the charged nucleotides, leaving only hydrolysed (^3H) substrate in the soluble fraction. The soluble fraction (50 μl) was then added to microscint-20 (200 μl) and counted on a Top Count Plate reader. Radioactivity units were plotted against inhibitor concentration and IC50 values obtained using Graph Pad Prism software.
# Alternatively, phosphodiesterase activity was measured by scintillation proximity assay (SPA) with [^3H]-cGMP as substrate. Purified PDE10 was diluted and stored in 25 mM Tris-Cl (pH 8.0)/100 mM NaCl/0.05% Tween 20/50% glycerol/3 mM DTT. Assays contained (final concentrations): 50 mM Tris-Cl (pH 7.5)/8.3 mM MgCl2/1.7 mM EGTA/0.5 mg/ml BSA/5% DMSO and 2 ng PDE10 in a final volume of 0.1 mL. Inhibition was evaluated at 8 concentrations in duplicate. Reactions were initiated by addition of enzyme and were terminated after 20 minutes at 30° C. by the addition of 50 μl of SPA beads containing Zn^++. The mixture was shaken, allowed to settle for 3 hours, and counted in a Wallac plate counter. Results (net cpm) were fitted to a four parameter logistic model using Excel Solver®.
# T1 sequence (Q9Y233 1-779 isoform Q9Y233-1): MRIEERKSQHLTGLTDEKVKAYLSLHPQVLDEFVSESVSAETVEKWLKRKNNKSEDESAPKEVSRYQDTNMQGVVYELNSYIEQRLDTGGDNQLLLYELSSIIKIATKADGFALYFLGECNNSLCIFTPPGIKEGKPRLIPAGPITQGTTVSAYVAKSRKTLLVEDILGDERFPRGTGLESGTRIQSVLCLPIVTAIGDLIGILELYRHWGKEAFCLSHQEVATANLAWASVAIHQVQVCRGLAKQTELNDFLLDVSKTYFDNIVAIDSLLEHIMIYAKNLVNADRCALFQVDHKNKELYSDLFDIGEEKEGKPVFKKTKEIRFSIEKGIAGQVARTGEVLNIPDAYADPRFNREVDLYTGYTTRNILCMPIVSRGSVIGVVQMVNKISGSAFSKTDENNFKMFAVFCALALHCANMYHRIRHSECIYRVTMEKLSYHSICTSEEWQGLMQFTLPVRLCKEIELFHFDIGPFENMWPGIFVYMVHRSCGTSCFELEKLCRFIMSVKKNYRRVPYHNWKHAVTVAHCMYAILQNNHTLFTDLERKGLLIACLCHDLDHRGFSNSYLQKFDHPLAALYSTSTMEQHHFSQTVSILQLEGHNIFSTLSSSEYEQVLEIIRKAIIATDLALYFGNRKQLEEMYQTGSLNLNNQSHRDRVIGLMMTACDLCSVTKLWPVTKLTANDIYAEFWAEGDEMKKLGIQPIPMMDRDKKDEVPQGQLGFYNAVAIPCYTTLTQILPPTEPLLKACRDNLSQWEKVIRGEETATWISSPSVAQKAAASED
smiles,measurement,value
"COc1cc(-c2csc(C(=O)C(OC)c3ccc(-n4cccn4)cc3)n2)cc(OC)c1Br (centres unmarked) [Compound 3-1, 2-(4-(1H-Pyrazol-1-Yl)Phenyl)-1-(4-(4-Bromo-3,5-Dimethoxyphenyl)Thiazol-2-Yl)-2-Methoxyethanone]",pIC50,≥ 6.00
"COc1cc(-c2cn(C)c(C(=O)C(OC)c3ccc(N4CCOCC4)cc3)n2)cc(OC)c1Br (centres unmarked) [Compound 4-1, 1-(4-(4-Bromo-3,5-Dimethoxyphenyl)-1-Methyl-1H-Imidazol-2-Yl)-2-Methoxy-2-(4-Morpholinophenyl)Ethanone]",pIC50,≥ 6.00
"COc1cc(-c2coc(C(=O)C(OC)c3ccc(-n4cccn4)cc3)n2)cc(OC)c1Br (centres unmarked) [Compound 5-1, 2-(4-(1H-Pyrazol-1-Yl)Phenyl)-1-(4-(4-Bromo-3,5-Dimethoxyphenyl)Oxazol-2-Yl)-2-Methoxyethanone]",pIC50,≥ 6.00
"COc1cc(-c2coc(C(=O)C(OC)c3ccc(N4CCCCC4)cc3)n2)cc(OC)c1Br (centres unmarked) [Compound 6-1, 1-(4-(4-Bromo-3,5-Dimethoxyphenyl)Oxazol-2-Yl)-2-Methoxy-2-(4-(Piperidin-1-Yl)Phenyl)Ethanone]",pIC50,≥ 6.00
"COc1cc(-c2coc(C(=O)C(OC)c3ccc(N4CCCC4)cc3)n2)cc(OC)c1Br (centres unmarked) [Compound 7-1, 1-(4-(4-Bromo-3,5-Dimethoxyphenyl)Oxazol-2-Yl)-2-Methoxy-2-(4-(Pyrrolidin-1-Yl)Phenyl)Ethanone]",pIC50,≥ 6.00
"COc1cc(-c2coc(C(=O)C(OC)c3ccc(OC(C)C)cc3)n2)cc(OC)c1Br (centres unmarked) [Compound 8-1, 1-(4-(4-Bromo-3,5-Dimethoxyphenyl)Oxazol-2-Yl)-2-(4-Isopropoxyphenyl)-2-Methoxyethanone]",pIC50,≥ 6.00
"COc1cc(-c2coc(C(=O)C(OC)c3cccc4ncccc34)n2)cc(OC)c1Br (centres unmarked) [Compound 9-1, 1-(4-(4-Bromo-3,5-Dimethoxyphenyl)Oxazol-2-Yl)-2-Methoxy-2-(Quinolin-5-Yl)Ethanone]",pIC50,≥ 6.00
"COc1cc(-c2coc(C(=O)C(OC)c3cnc4ccccc4c3)n2)cc(OC)c1Br (centres unmarked) [Compound 10-1, 1-(4-(4-Bromo-3,5-Dimethoxyphenyl)Oxazol-2-Yl)-2-Methoxy-2-(Quinolin-3-Yl)Ethanone]",pIC50,≥ 6.00
"COc1cc(-c2ccc(C(=O)C(OC)c3ccc(N4CCOCC4)cc3)o2)cc(OC)c1Br (centres unmarked) [Compound 12-1, 1-(5-(4-Bromo-3,5-Dimethoxyphenyl)Furan-2-Yl)-2-Methoxy-2-(4-Morpholinophenyl)Ethanone]",pIC50,≥ 6.00
"COc1cc(-c2ccc(C(=O)C(OC)c3ccc(-c4nnc(C)o4)cc3)o2)cc(OC)c1Br (centres unmarked) [Compound 13-1, 1-(5-(4-Bromo-3,5-Dimethoxyphenyl)Furan-2-Yl)-2-Methoxy-2-(4-(5-Methyl-1,3,4-Oxadiazol-2-Yl)Phenyl)Ethanone]",pIC50,≥ 6.00
"COc1cc(-c2ccc(C(=O)C(OC)c3ccc(-n4cccn4)cc3)o2)cc(OC)c1Br (centres unmarked) [Compound 14-1, 2-(4-(1H-Pyrazol-1-Yl)Phenyl)-1-(5-(4-Bromo-3,5-Dimethoxyphenyl)Furan-2-Yl)-2-Methoxyethanone]",pIC50,≥ 6.00
"COc1cc(-c2ccc(C(=O)C(OC)c3ccc(-c4cn[nH]c4)cc3)o2)cc(OC)c1Br (centres unmarked) [Compound 15-1, 2-(4-(1H-Pyrazol-4-Yl)Phenyl)-1-(5-(4-Bromo-3,5-Dimethoxyphenyl)Furan-2-Yl)-2-Methoxyethanone]",pIC50,≥ 6.00
"COc1cc(-c2ccc(C(=O)C(OC)c3ccc(-c4ccc(C)o4)cc3)o2)cc(OC)c1Br (centres unmarked) [Compound 16-1, 1-(5-(4-Bromo-3,5-Dimethoxyphenyl)Furan-2-Yl)-2-Methoxy-2-(4-(5-Methylfuran-2-Yl)Phenyl)Ethanone]",pIC50,≥ 6.00
"COc1cc(-c2ccc(C(=O)C(OC)c3ccc(-c4nnc(C)o4)cc3)o2)cc(C#N)c1OC (centres unmarked) [Compound 17-1, 2,3-Dimethoxy-5-(5-(2-Methoxy-2-(4-(5-Methyl-1,3,4-Oxadiazol-2-Yl)Phenyl)Acetyl)Furan-2-Yl)Benzonitrile]",pIC50,≥ 6.00
"CCc1nnc(-c2ccc(C(OC)C(=O)c3ccc(-c4cc(OC)c(Br)c(OC)c4)o3)cc2)o1 (centres unmarked) [Compound 18-1, 1-(5-(4-Bromo-3,5-Dimethoxyphenyl)Furan-2-Yl)-2-(4-(5-Ethyl-1,3,4-Oxadiazol-2-Yl)Phenyl)-2-Methoxyethanone]",pIC50,≥ 6.00
"COc1cc(-c2ccc(C(=O)C(OC)c3ccc(N4CCCS4(=O)=O)cc3)o2)cc(OC)c1Br (centres unmarked) [Compound 19-1, 1-(5-(4-Bromo-3,5-Dimethoxyphenyl)Furan-2-Yl)-2-(4-(1,1-Dioxidoisothiazolidin-2-Yl)Phenyl)-2-Methoxyethanone]",pIC50,≥ 6.00
"COc1cc(-c2ccc(C(=O)C(OC)c3cccc4ncccc34)o2)cc(OC)c1Br (centres unmarked) [Compound 20-1, 1-(5-(4-Bromo-3,5-Dimethoxyphenyl)Furan-2-Yl)-2-Methoxy-2-(Quinolin-5-Yl)Ethanone]",pIC50,≥ 6.00
"COc1cc(-c2ccc(C(=O)C(OC)c3ccc(-c4nnc(C)o4)cc3)o2)cc(OC)c1C (centres unmarked) [Compound 21-1, 1-(5-(3,5-Dimethoxy-4-Methylphenyl)Furan-2-Yl)-2-Methoxy-2-(4-(5-Methyl-1,3,4-Oxadiazol-2-Yl)Phenyl)Ethanone]",pIC50,≥ 6.00
"COc1cc(-c2ccc(C(=O)C(OC)c3ccc(-c4nnc(C5CC5)o4)cc3)o2)cc(OC)c1Br (centres unmarked) [Compound 22-1, 1-(5-(4-Bromo-3,5-Dimethoxyphenyl)Furan-2-Yl)-2-(4-(5-Cyclopropyl-1,3,4-Oxadiazol-2-Yl)Phenyl)-2-Methoxyethanone]",pIC50,≥ 6.00
"COc1cc(-c2ccc(C(=O)C(OC)c3ccc(N4CCCCC4)nc3)o2)cc(OC)c1Br (centres unmarked) [Compound 23-1, 1-(5-(4-Bromo-3,5-Dimethoxyphenyl)Furan-2-Yl)-2-Methoxy-2-(6-(Piperidin-1-Yl)Pyridin-3-Yl)Ethanone]",pIC50,≥ 6.00
"COc1cc(-c2ccc(C(=O)C(OC)c3ccc4c(c3)nnn4C)o2)cc(OC)c1Br (centres unmarked) [Compound 25-1, 1-(5-(4-Bromo-3,5-Dimethoxyphenyl)Furan-2-Yl)-2-Methoxy-2-(1-Methyl-1H-Benzo[D][1,2,3]Triazol-5-Yl)Ethanone]",pIC50,≥ 6.00
"COc1cc(-c2ccc(C(=O)C(OC)c3ccc(CN4CCOCC4)cc3)o2)cc(OC)c1Br (centres unmarked) [Compound 26-1, 1-(5-(4-Bromo-3,5-Dimethoxyphenyl)Furan-2-Yl)-2-Methoxy-2-(4-(Morpholinomethyl)Phenyl)Ethanone]",pIC50,≥ 6.00
"COc1cc(OC)cc(-c2ccc(C(=O)C(OC)c3ccc(N4CCOCC4)cc3)o2)c1 (centres unmarked) [Compound 27-1, 1-(5-(3,5-Dimethoxyphenyl)Furan-2-Yl)-2-Methoxy-2-(4-Morpholinophenyl)Ethanone]",pIC50,≥ 6.00
"COc1cc(-c2ccc(C(=O)C(OC)c3ccc(N4CCOCC4)cc3)o2)cc(OC)c1OC(F)F (centres unmarked) [Compound 28-1, 1-(5-(4-(Difluoromethoxy)-3,5-Dimethoxyphenyl)Furan-2-Yl)-2-Methoxy-2-(4-Morpholinophenyl)Ethanone]",pIC50,≥ 6.00
"CCOc1c(OC)cc(-c2ccc(C(=O)C(OC)c3ccc(N4CCOCC4)cc3)o2)cc1OC (centres unmarked) [Compound 29-1, 1-(5-(4-Ethoxy-3,5-Dimethoxyphenyl)Furan-2-Yl)-2-Methoxy-2-(4-Morpholinophenyl)Ethanone]",pIC50,≥ 6.00
"COc1cc(-c2ccc(C(=O)C(OC)c3ccc(-n4nccn4)cc3)o2)cc(OC)c1Br (centres unmarked) [Compound 30-1, 2-(4-(2H-1,2,3-Triazol-2-Yl)Phenyl)-1-(5-(4-Bromo-3,5-Dimethoxyphenyl)Furan-2-Yl)-2-Methoxyethanone]",pIC50,≥ 6.00
"COc1cc(-c2ccc(C(=O)C(OC)c3ccc(-n4ccnn4)cc3)o2)cc(OC)c1Br (centres unmarked) [Compound 31-1, 2-(4-(1H-1,2,3-Triazol-1-Yl)Phenyl)-1-(5-(4-Bromo-3,5-Dimethoxyphenyl)Furan-2-Yl)-2-Methoxyethanone]",pIC50,≥ 6.00
"COc1cc(-c2ccc(C(=O)C(OC)c3ccc(-n4cncn4)cc3)o2)cc(OC)c1Br (centres unmarked) [Compound 32-1, 2-(4-(1H-1,2,4-Triazol-1-Yl)Phenyl)-1-(5-(4-Bromo-3,5-Dimethoxyphenyl)Furan-2-Yl)-2-Methoxyethanone]",pIC50,≥ 6.00
"COc1cc(-c2ccc(C(=O)C(OC)c3ccc(-c4nnn(C)n4)cc3)o2)cc(OC)c1Br (centres unmarked) [Compound 33-1, 1-(5-(4-Bromo-3,5-Dimethoxyphenyl)Furan-2-Yl)-2-Methoxy-2-(4-(2-Methyl-2H-Tetrazol-5-Yl)Phenyl)Ethanone]",pIC50,≥ 6.00
